Columns and labels:
Format in all cases: in vivo
[1] = test system: emetic response to apomorphine; assay: Anti-emetic activity in the dog (abolition of emetic response to apomorphine); conditions: for ED50: Canis lupus familiaris, sc, apomorphine emesis
Experimental: 2. Anti- emetic activity in the dog
(a) Compounds were tested in the dog for their ability to abolish the emetic response to apomorphine.

[2] = test system: stereotype behaviour induced by apomorphine (dopamine receptor blockade in the central nervous system); assay: Inhibition of stereotype behaviour induced by apomorphine; conditions: rat; for Inhibition of Stereotype Behaviour, active dose: s.c., apomorphine induced, active doses (mg/kg)
Experimental: (§1) 1. Compounds prepared in the Examples were tested for the following pharmacological activities in the rat:
(c) Inhibition of stereotype behaviour induced by apomorphine
This is indicative of dopamine receptor blockade in the central nervous system.

intragastric pressure [3] = assay: Increase in intragastric pressure in the rat; conditions: s.c., active doses (mg/kg)
Experimental: as §1
(a) Increase in intragastric pressure
Intragastric pressure changes were recorded from previously starved conscious but restrained rats using a saline filled catheter inserted into the lumen of the stomach via a permanent gastric fistula. The catheter was connected to a physiological pressure transducer and pressure changes recorded on a hot wire pen recorder. In each animal a pre dose period of 40 minutes was allowed to obtain a measure of spontaneous activity. An index of activity was obtained by measuring the average height of pressure waves during 10 minute periods. Values for 4 such periods were obtained during assessment of spontaneous activity and for the 40 minute period after the subcutaneous administration of the Compounds. Student "t" test was applied to the difference in average values obtained for spontaneous and post Compound activity.

intragastric pressure [4] = assay: Increase in intragastric pressure in the rat; conditions: p.o., active doses (mg/kg)
[5] = test system: apomorphine induced delay in gastric emptying; assay: Increase in gastric emptying - reversal of apomorphine induced delay in gastric emptying of a test meal; conditions: rat, s.c., apomorphine HCl 5 mg/kg s.c., active doses (mg/kg); for Increase in Gastric Emptying, active dose (slightly active): slightly active at this dose
Experimental: as §1
(b) Increase in gastric emptying-reversal of apomorphine induced delay in gastric emptying of a test meal.
Rats equipped with chronic gastric fistual were used and it was through this that 5 ml of a test meal (5 ml phosphate buffer at pH 9) was administered and recovered. The % recovery of the standard meal after remaining in the stomach for 10 minutes was taken as an index of gastric emptying. Delay in gastric emptying was induced by the administration of Apomorphine HCl (5 mg/kg subcutaneously) and was given 15 minutes prior to the subcutaneous administration of the Compound. The % recoveries of the test meal was determined at 15-25 and 45-55 minutes post dosing with the Compound and compared with vehicle only dosed animals set up simultaneously. Six animals were used for each group.

[6] = test system: amphetamine induced stereotypy; assay: Antagonism of Amphetamine Stereotypy; conditions: rats, 10 mg/kg subcutaneously; d-amphetamine 10 mg/kg s.c.
Experimental: Antagonism of Amphetamine Stereotypy
Based on method of Jansen, Niemegeers and Schellekens (1966), Arzneimittel Forsch., 15, pp. 104-117. Rats were given compound 15 minutes prior to subcutaneous injection of d-amphetamine (10 mg/kg). 30 minutes and 1 hour after the amphetamine, the degree of stereotyped behaviour was scored according to the method of Costal, Naylor and Olley (1972). Europ. J. Pharmacol., 18, pp. 83-94. The percentage inhibition of stereotypy at the respective time interval was calculated.

[7] = test system: catapresan induced fighting behaviour; assay: Catapresan Test (catapresan induced fighting behaviour); conditions: Mus musculus, po; mice, orally; catapresan 20-25 mg/kg intravenously; read-out: ED50, inhibition of catapresan induced fighting behaviour
Experimental: Catapresan (20-25 mg/kg intravenously) was used to induce fighting behaviour in mice. The fighting was assessed as the biting of a dead mouse placed in the cage and was given a score of 1 or 2 depending on intensity. Compound effect was measured as percentage inhibition of fighting compared to that with control animals and the dose reducing fighting by 50% was determined graphically.

**Q.** With `COc1cc(N)c(Cl)cc1C(=O)NN1CCN(Cc2ccccc2)CC1` [Example 1, 4-Amino-5-chloro-2-methoxy-N-[4-benzyl-1-piperazinyl]benzamide] as the compound, how does the ED50 [1] read?
**A.** Its ED50 is 0.0125 mg/kg.

**Q.** And the “Inhibition of Stereotype Behaviour, active dose” value (“Inhibition … active dose” for short) [2]?
**A.** The value was 0.625 mg.

**Q.** Which “Increase in Intra-gastric Pressure, active dose” value (intragastric pressure [3]) does the source give for `COc1cc(N)c(Cl)cc1C(=O)NN1CCN(C)CC1` [Example 2, 4-Amino-5-chloro-2-methoxy-N-[4-methyl-1-piperazinyl]benzamide] here?
**A.** Its value is 1 mg/kg.

**Q.** And the ED50 [1]?
**A.** Its ED50 is 8 mg/kg.

**Q.** And the “Inhibition of Stereotype Behaviour” value ([2]; at 100 mg s.c.)?
**A.** The value was “Inactive”.

**Q.** What about the “Increase in Intra-gastric Pressure, active dose” value (intragastric pressure [4]) of the same compound?
**A.** Its value is 20 mg/kg.

**Q.** With `COc1cc(N)c(Cl)cc1C(=O)NN1CCN(C)CC1` [Example 4, 4-amino-5-chloro-2-methoxy-N-[4-methyl-1-piperazinyl]benzamide] as the compound, how does the “Increase in Intra-gastric Pressure, active dose” value (intragastric pressure [4]) read?
**A.** Its value is 10 mg/kg.

**Q.** Which results are given for `CCN1CCN(NC(=O)c2cc(Cl)c(N)cc2OC)CC1` [Example 5, 4-Amino-5-chloro-2-methoxy-N-[4-ethyl-1-piperazinyl]benzamide]?
**A.** Increase in Intra-gastric Pressure, active dose (intragastric pressure [3]): 50 mg/kg; Inhibition of Stereotype Behaviour ([2]; at 50 mg s.c.): Inactive

**Q.** Which results are given for `CCCCN1CCN(NC(=O)c2cc(Cl)c(N)cc2OC)CC1` [Example 6, 4-Amino-5-chloro-2-methoxy-N-[4-n-butyl-1-piperazinyl]benzamide]?
**A.** Increase in Intra-gastric Pressure, active dose (intragastric pressure [3]): 5 mg/kg; ED50 [1]: 1 mg/kg; Inhibition of Stereotype Behaviour ([2]; at 25 mg s.c.): Inactive

**Q.** For `COc1cc(N)c(Cl)cc1C(=O)NN1CCN(Cc2ccc(Cl)cc2)CC1` [Example 7, 4-Amino-5-chloro-2-methoxy-N-{[4-(4-chlorobenzyl)]1-piperazinyl}benzamide], which “Inhibition … active dose” value [2] is on record?
**A.** The value was 50 mg.

**Q.** With `COc1ccc(CN2CCN(NC(=O)c3cc(Cl)c(N)cc3OC)CC2)cc1` [Example 8, 4-Amino-5-chloro-2-methoxy-N-[4-(4-methoxybenzyl)-1-piperazinyl]benzamide] as the compound, how does the “Inhibition … active dose” value [2] read?
**A.** Its value is 3 mg.

**Q.** Which “Increase in Intra-gastric Pressure, active dose” value (intragastric pressure [3]) does the source give for `COc1cc(N)c(Cl)cc1C(=O)NN1CCCN(C)CC1` [Example 9, 4-Amino-5-chloro-2-methoxy-N-[4-methyl-1-(1,4-diazacycloheptyl)]benzamide] here?
**A.** The value was 10 mg/kg.

**Q.** And the Anti-emetic activity ([1]; at 2 mg/kg s.c., inhibition of no. of vomits only)?
**A.** Its Anti-emetic activity is “slight activity”.

**Q.** What about the “Inhibition of Stereotype Behaviour” value ([2]; at 25 mg s.c.) of the same compound?
**A.** The value was “Inactive”.

**Q.** Which “Increase in Intra-gastric Pressure, active dose (slightly active)” value (intragastric pressure [3]; slightly active at this dose) does the source give for `COc1cc(N)c(Cl)cc1C(=O)NN1CCN(Cc2cccs2)CC1` [Example 11, 4-Amino-5-chloro-2-methoxy-N-[4-(2-thenyl)-1-piperazinyl]-benzamide] here?
**A.** The value was 50 mg.

**Q.** What about the “Inhibition of Stereotype Behaviour” value ([2]; at 50 mg s.c.) of the same compound?
**A.** Its value is “Inactive”.

**Q.** Which “Inhibition … active dose” value [2] does the source give for `COc1cc(N)c(Cl)cc1C(=O)NN1CCN(Cc2ccsc2)CC1` [Example 12, 4-Amino-5-chloro-2-methoxy-N-[4-(3-thenyl)-1-piperazinyl]-benzamide] here?
**A.** Its value is 50 mg.

**Q.** `CCCCCN1CCN(NC(=O)c2cc(Cl)c(N)cc2OC)CC1` [Example 13, 4-amino-5-chloro-2-methoxy-N-[4-(1-pentyl)-1-piperazinyl]-benzamide] was tested. Which ED50 [1] did it give?
**A.** Its ED50 is 0.36 mg/kg.

**Q.** What about the “Inhibition … active dose” value [2] of the same compound?
**A.** The value was 50 mg.

**Q.** `COc1cc(N)c(Cl)cc1C(=O)NN1CCN(Cc2ccc(F)cc2)CC1` [Example 14, 4-amino-5-chloro-2-methoxy-N-[4-(4-fluorobenzyl)-1-piperazinyl]-benzamide] was tested. Which “Inhibition … active dose” value [2] did it give?
**A.** The value was 50 mg.

**Q.** Which results are given for `CCCN1CCN(NC(=O)c2cc(Cl)c(N)cc2OC)CC1` [Example 15, 4-amino-5-chloro-2-methoxy-N-[4-(1-propyl)-1-piperazinyl]-benzamide]?
**A.** Increase in Intra-gastric Pressure, active dose (intragastric pressure [3]): 10 mg/kg; Increase in Gastric Emptying, active dose (slightly active) [5]: 50 mg; Inhibition of Stereotype Behaviour ([2]; at 50 mg s.c.): Inactive

**Q.** Which “Increase in Intra-gastric Pressure, active dose” value (intragastric pressure [3]) does the source give for `COc1cc(N)c(Cl)cc1C(=O)NN1CCN(C(C)C)CC1` [Example 16, 4-amino-5-chloro-2-methoxy-N-[4-(2-propyl)-1-piperazinyl]-benzamide] here?
**A.** Its value is 5 mg/kg.

**Q.** And the “Inhibition of Stereotype Behaviour” value ([2]; at 50 mg s.c.)?
**A.** The value was “Inactive”.

**Q.** Which results are given for `COc1cc(N)c(Cl)cc1C(=O)NN1CC[N+](C)(C)CC1.[Br-]` [Example 17, 4-Amino-5-chloro-2-methoxy-N-[4-methyl-1-piperazinyl]-benzamide methobromide]?
**A.** Increase in Intra-gastric Pressure, active dose (intragastric pressure [3]): 0.5 mg/kg; Inhibition of Stereotype Behaviour ([2]; at 50 mg s.c.): Inactive

**Q.** With `COc1cc(N)c(Cl)cc1C(=O)NN1CC[N+](C)(Cc2ccccc2)CC1.[Br-]` [Example 18, 4-Amino-5-chloro-2-methoxy-N-[4-methyl-1-piperazinyl]-benzamide benzobromide] as the compound, how does the “Increase in Intra-gastric Pressure, active dose” value (intragastric pressure [3]) read?
**A.** Its value is 25 mg/kg.

**Q.** And the “Increase in Gastric Emptying, active dose” value [5]?
**A.** The value was 25 mg.

**Q.** What about the “Inhibition of Stereotype Behaviour” value ([2]; at 50 mg s.c.) of the same compound?
**A.** The value was “Inactive”.

**Q.** What does the source list for `CCCC[N+]1(C)CCN(NC(=O)c2cc(Cl)c(N)cc2OC)CC1.[Br-]` [Example 19, 4-Amino-5-chloro-2-methoxy-N-[4-n-butyl-1-piperazinyl]-benzamide methobromide]?
**A.** Increase in Intra-gastric Pressure, active dose (intragastric pressure [3]): 1 mg/kg; Increase in Gastric Emptying, active dose (slightly active) [5]: 50 mg; Inhibition of Stereotype Behaviour ([2]; at 50 mg s.c.): Inactive

**Q.** `COc1cc(N)c(Cl)cc1C(=O)NN1CCN(CCC(C)C)CC1` [Example 20, 4-Amino-5-chloro-2-methoxy-N-[4-(3-methylbutyl)-1-piperazinyl]-benzamide] was tested. Which ED50 [1] did it give?
**A.** The ED50 was 0.35 mg/kg.

**Q.** With `COc1cc(N)c(Br)cc1C(=O)NN1CCN(C)CC1` [Example 21, 4-Amino-5-bromo-2-methoxy-N-[4-methyl-1-piperazinyl]-benzamide hemihydrate] as the compound, how does the “Increase in Intra-gastric Pressure, active dose” value (intragastric pressure [3]) read?
**A.** The value was 5 mg/kg.

**Q.** What about the “Inhibition of Stereotype Behaviour” value ([2]; at 50 mg s.c.) of the same compound?
**A.** Its value is “Inactive”.

**Q.** `CCCCN1CCCN(NC(=O)c2cc(Cl)c(N)cc2OC)CC1` [Example 22, 4-Amino-5-chloro-2-methoxy-N-[4-n-butyl-1-(1-4-diazocycloheptyl)]benzamide] was tested. Which “Inhibition of apomorphine induced emesis” value ([1]; at 5 mg/kg subcutaneously) did it give?
**A.** The value was “completely inhibited”.

**Q.** How did the “Inhibition of amphetamine induced stereotypy” value [6] turn out when `COc1cc(N)c(Cl)cc1C(=O)NN1CCN(Cc2ccc(N(C)C)cc2)CC1` [Example 23, 4-Amino-5-chloro-2-methoxy-N-[4-(4-dimethylaminobenzyl)-1-piperazinyl]benzamide] was run?
**A.** The value was 25%.

**Q.** What about the ED50 [7] of the same compound?
**A.** Its ED50 is 60 mg/kg.

— US4267175A, “Benzamide derivatives” (Beecham Group Limited, priority 1976, dated 1981)
